Key:
EKVX = test: NCI-60 screening (SRB); assay type: cell-based, human; settings: five-dose
HOP-62 = test: NCI-60 screening (SRB); assay type: cell-based, human; settings: five-dose
HOP-92 = test: NCI-60 screening (SRB); assay type: cell-based, human; settings: five-dose
NCI-H23 = test: NCI-60 screening (SRB); assay type: cell-based, human; settings: five-dose
HCT-15 = test: NCI-60 screening (SRB); assay type: cell-based, human; settings: five-dose
SF-295 = test: NCI-60 screening (SRB); assay type: cell-based, human; settings: five-dose
SF-539 = test: NCI-60 screening (SRB); assay type: cell-based, human; settings: SF-539, five-dose
SNB-19 = test: NCI-60 screening (SRB); assay type: cell-based, human; settings: five-dose
U251 = test: NCI-60 screening (SRB); assay type: cell-based, human; settings: U251, five-dose
CNS cancer = test: cells; assay type: cell-based
Source text: The experimental data allow the assessment of the cytostatic effect, indicated by growth inhibition values ranging between 0 and 100, as well as of the cytotoxic effect, indicated by negative values.
The mean GI50 (molar concentration of the compound that inhibits 50% net cell growth), TGI (molar concentration of the compound leading to the total inhibition), and LC50 (molar concentration of the compound leading to 50% net cell death (presented in negative logarithm)) values across each cell line are shown in Table 2.
The selectivity index (SI), calculated as the ratio between the full panel MG_MID60 (μM) of compounds 4, 6, and 9 by their respective subpanels MG_MID of the cell line (μM), was introduced as a quantification tool for the selectivity of each compound in terms of anticancer effect (Table 3).
Primary anticancer assays were performed according to the NCI protocol, as described elsewhere (see e.g., http://dtp.nci.nih.gov accessed on 1 November 2018). The compounds were added at a single concentration, and the cell cultures were incubated for 48 h. The end point determinations were made with a protein-binding dye, sulforhodamine B (SRB). […] The percentage of growth was evaluated spectrophotometrically versus controls not treated with test agents after 48 h exposure and using SRB protein assay to estimate cell viability or growth. Three antitumor activity dose-response parameters were calculated for each cell line. Furthermore, mean graph midpoints (MG_MID) were calculated for each of the parameters, giving an average activity parameter over all cell lines for the tested compound. For the MG_MID calculation, insensitive cell lines were included with the highest concentration tested.

MALME-3M = test: NCI-60 screening (SRB); assay type: cell-based, human; settings: MALME-3M, five-dose
SK-MEL-2 = test: NCI-60 screening (SRB); assay type: cell-based, human; settings: five-dose
SK-MEL-5 = test: NCI-60 screening (SRB); assay type: cell-based, human; settings: SK-MEL-5, five-dose
UACC-62 = test: NCI-60 screening (SRB); assay type: cell-based, human; settings: five-dose
OVCAR-8 = test: NCI-60 screening (SRB); assay type: cell-based, human; settings: five-dose
NCI/ADR-RES = test: NCI-60 screening (SRB); assay type: cell-based, human; settings: five-dose
SK-OV-3 = test: NCI-60 screening (SRB); assay type: cell-based, human; settings: five-dose
786-0 = test: NCI-60 screening (SRB); assay type: cell-based, human; settings: five-dose
CAKI-1 = test: NCI-60 screening (SRB); assay type: cell-based, human; settings: CAKI-1, five-dose
SN12C = test: NCI-60 screening (SRB); assay type: cell-based, human; settings: five-dose
PC-3 = test: NCI-60 screening (SRB); assay type: cell-based, human; settings: five-dose
DU-145 = test: NCI-60 screening (SRB); assay type: cell-based, human; settings: five-dose
MCF7 = test: NCI-60 screening (SRB); assay type: cell-based, human; settings: five-dose
MDA-MB-31/ATCC = test: NCI-60 screening (SRB); assay type: cell-based, human; settings: five-dose
HS 578T = test: NCI-60 screening (SRB); assay type: cell-based, human; settings: five-dose
T-47D = test: NCI-60 screening (SRB); assay type: cell-based, human; settings: five-dose
MDA-MB-468 = test: NCI-60 screening (SRB); assay type: cell-based, human; settings: five-dose
[1] = Homo sapiens, read-out: LC50 (the source's name)

For `CCN1CCN(C(=O)[C@]23CC[C@@H](C)[C@H](C)[C@H]2C2=CC[C@@H]4[C@@]5(C)C/C(=C/c6cccnc6)C(=O)C(C)(C)[C@@H]5CC[C@@]4(C)[C@]2(C)CC3)CC1` [Compound 9, N-(2-{3-Pyridinylidene}-3-oxoursan-12-en-28-oyl)-ethylpiperazine], the GI50 (EKVX; Homo sapiens) was 2.17 µM, the LC50 (EKVX; Homo sapiens) was 61.7 µM and the TGI (EKVX) was 7.32 µM. For the same compound, the GI50 (HOP-62; Homo sapiens) was 2.43 µM, the LC50 (HOP-62; Homo sapiens) was over 100 µM and the TGI (HOP-62) was 5.86 µM. The GI50 (HOP-92; Homo sapiens) was 1.57 µM, the CC50 (HOP-92; [1]) was 38.8 µM and the TGI (HOP-92) was 5.73 µM. The GI50 (NCI-H23; Homo sapiens) was 2.13 µM, the CC50 (NCI-H23; [1]) was 31.8 µM and the TGI (NCI-H23) was 5.91 µM. The GI50 (HCT-15; Homo sapiens) was 1.66 µM, the CC50 (HCT-15; [1]) was 6.41 µM and the TGI (HCT-15) was 3.26 µM. It also gave a GI50 (SF-295; Homo sapiens) of 1.63 µM, a CC50 (SF-295; [1]) of 5.7 µM and a TGI (SF-295) of 3.05 µM. The GI50 (SF-539; Homo sapiens) was 1.66 µM, the CC50 (SF-539; [1]) was 5.58 µM and the TGI (SF-539) was 3.05 µM. For the same compound, the GI50 (SNB-19; Homo sapiens) was 1.79 µM, the CC50 (SNB-19; [1]) was 7.82 µM and the TGI (SNB-19) was 3.74 µM. For the same compound, the GI50 (U251; Homo sapiens, U-251) was 1.82 µM, the TGI (U251) was 3.67 µM and the “TGI MG_MID” value (CNS cancer; CNS cancer subpanel, five-dose) was 4.41 µM. For the same compound, the “SI (TGI)” value (CNS cancer; CNS cancer, MG_MID60/subpanel MG_MID) was 1.20, the GI50 (CNS cancer; Homo sapiens, CNS cancer subpanel, five-dose, read-out: GI50 MG_MID) was 1.71 µM and the CC50 (CNS cancer; Homo sapiens, CNS cancer subpanel, five-dose, read-out: LC50 MG_MID) was 13.6 µM. For the same compound, the GI50 (MALME-3M; Homo sapiens) was 1.4 µM, the CC50 (MALME-3M; [1]) was 5.39 µM and the TGI (MALME-3M) was 2.75 µM. It also gave a GI50 (SK-MEL-2; Homo sapiens) of 2.12 µM, a CC50 (SK-MEL-2; [1]) of 65.5 µM and a TGI (SK-MEL-2) of 4.76 µM. The GI50 (SK-MEL-5; Homo sapiens) was 1.75 µM, the CC50 (SK-MEL-5; [1]) was 5.63 µM and the TGI (SK-MEL-5) was 3.14 µM. For the same compound, the GI50 (UACC-62; Homo sapiens) was 1.51 µM, the CC50 (UACC-62; [1]) was 5.8 µM and the TGI (UACC-62) was 2.96 µM. The GI50 (OVCAR-8; Homo sapiens) was 2.32 µM, the CC50 (OVCAR-8; [1]) was over 100 µM and the TGI (OVCAR-8) was 6.29 µM. The GI50 (NCI/ADR-RES; Homo sapiens) was 1.59 µM, the CC50 (NCI/ADR-RES; [1]) was 6.91 µM and the TGI (NCI/ADR-RES) was 3.31 µM. For the same compound, the GI50 (SK-OV-3; Homo sapiens) was 2.7 µM, the CC50 (SK-OV-3; [1]) was 90.1 µM and the TGI (SK-OV-3) was 9.02 µM. For the same compound, the GI50 (786-0; Homo sapiens) was 1.98 µM, the TGI (786-0) was 4.37 µM and the TGI (CAKI-1) was 11.8 µM. It also gave a GI50 (CAKI-1; Homo sapiens) of 2.12 µM, a CC50 (CAKI-1; [1]) of 41.9 µM and a GI50 (SN12C; Homo sapiens) of 1.61 µM. For the same compound, the CC50 (SN12C; [1]) was 5.66 µM, the TGI (SN12C) was 3.01 µM and the GI50 (PC-3; Homo sapiens) was 1.49 µM. For the same compound, the CC50 (PC-3; [1]) was 9.92 µM, the TGI (PC-3) was 3.85 µM and the GI50 (DU-145; Homo sapiens) was 2.08 µM. The CC50 (DU-145; [1]) was 8.53 µM, the TGI (DU-145) was 4.21 µM and the GI50 (MCF7; Homo sapiens) was 1.64 µM. It also gave a CC50 (MCF7; [1]) of 7.14 µM, a TGI (MCF7) of 3.42 µM and a GI50 (MDA-MB-31/ATCC; Homo sapiens) of 1.75 µM. It also gave a CC50 (MDA-MB-31/ATCC; [1]) of 7.39 µM, a TGI (MDA-MB-31/ATCC) of 3.59 µM and a GI50 (HS 578T; Homo sapiens) of 1.91 µM. For the same compound, the CC50 (HS 578T; [1]) was over 100 µM, the TGI (HS 578T) was 4.77 µM and the GI50 (T-47D; Homo sapiens, T47D) was 2.79 µM. It also gave an LC50 (concentration killing 50% of cells) (T-47D; Homo sapiens, T47D) of over 100 µM, a TGI (T-47D) of 13.4 µM and a GI50 (MDA-MB-468; Homo sapiens) of 1.65 µM. For the same compound, the CC50 (MDA-MB-468; [1]) was 7.1 µM and the TGI (MDA-MB-468) was 3.43 µM.
